Test results as given in patent US9259452B2, “Deacetylase inhibitor therapy” (Celgene Corporation, priority 2006, dated 2016).
Values joined by “and” are separate entries in the source; they are usually repeats but may differ in a detail not shown here. Equal entries are not always repeated. Marks after values point to notes of the source that are not given here.

Legend:
[1] = QTc analysis (heart rate-corrected QT interval) on ECGs, phase II trial; settings: for Least Square mean QT interval: all doses of first 6 cycles
[2] = Serum cardiac troponin I and CPK levels prior to and on the day after each dose
Experimental: An additional ECG was obtained on day 3 of the first cycle. ECGs were obtained using an HP Pagewriter XLi or a GE Marquette MAC1200 and recorded at 25 mm/sec, with an amplitude of 10 mm/mV and with 60 Hz filtering. They were analyzed using Pagewriter A.04.01 ECG analysis software (Philips Medical Systems). The QT interval measurement in this program is made by averaging the five longest QT intervals with a T or T′ wave amplitude greater than 0.15 mV. […] Grade 1 toxicity was defined as nonspecific T-wave abnormalities, (flattening or inversion without ST segment abnormalities) and Grade 2 as ST segment depression of at least 1 mm in at least 2 leads. If both were observed, then the ECG was assigned a grade 2 toxicity. […] The QTc analysis was performed on ECGs obtained during the first six cycles from patients treated on the day 1, 8 and 15 schedule (37 patients). ECGs from patients with an intraventricular conduction delay, defined as QRS duration greater than 100 ms, were excluded from the QTc analysis since in that setting the QTc interval includes a variable depolarization interval that leads to a prolonged QTc value (22).

[3] = Bazett's formula, 2051 ECGs, 42 patients
[4] = first 6 cycles, all 42 patients
[5] = re-calculated using Friderica's formula
[6] = obtained in parallel with elevated cTnI samples, individual cases

C/C=C1\NC(=O)[C@H]2CSSCC/C=C/[C@H](CC(=O)N[C@H](C(C)C)C(=O)N2)OC(=O)[C@H](C(C)C)NC1=O [romidepsin, (1S,4S,10S,16E,21R)-7-[(2Z)-ethylidene]-4,21-diisopropyl-2-oxa-12,13-dithia-5,8,20,23-tetraazabicyclo[8.7.6]tricos-16-ene-3,6,9,19,22-pentanone]
Maximal increase of QTc, median ([1]; 31 patients, first six cycles): 11.3%
Maximum increase in QTc ([1]; 31 patients, first six cycles): 78.25 ms
Doses associated with a 30 to 60 ms prolongation of QTc ([1]; 349 doses, 31 patients): 25%
Doses associated with a greater than 60 ms prolongation of QTc ([1]; 349 doses, 31 patients): 2.6%
Median change of QTc from baseline ([1]; 670 ECGs obtained immediately post-treatment or on the day following treatment): 13.42 ms
Share of ECGs with QTc over 450 ms that were obtained immediately post treatment or on the day following treatment ([1]; Bazett's formula): Eighty-nine
Number of patients with QTc greater than 450 ms ([1]; Bazett's formula, 42 patients): 28
Number of patients with QTc greater than 480 ms ([1]; Bazett's formula, 42 patients): 10
Number of patients with QTc greater than 500 ms ([1]; Bazett's formula, 42 patients): 4
Number of ECGs with QTc greater than 450 ms [1, 3]: 163
Number of ECGs with QTc greater than 480 ms [1, 3]: 20
Number of ECGs with QTc greater than 500 ms [1, 3]: 5
Share of ECGs with QTc greater than 450 ms [1, 3]: 8.0%
Share of ECGs with QTc greater than 480 ms [1, 3]: 1%
Share of ECGs with QTc greater than 500 ms [1, 3]: 0.2%
QTc Interval Difference [D2]-[4 hr], Median ([1]; C1): 0.0 ms
QTc Interval Difference [D3]-[Baseline], Median ([1]; C1): -2.5 ms
QTc Interval Difference [D3]-[D2], Median ([1]; C1): -20.0 ms
QTc Interval Difference [D2]-[Baseline], Median ([1]; C1 (cycle 1)): 10.8 ms
QTc Interval Difference [4 hr]-[Baseline], Median ([1]; C1 (cycle 1), first dose, day 1, 8, 15 schedule): 16.5 ms
QTc Interval Difference [4 hr]-[Baseline], Median ([1]; C2): 8.0 ms
QTc Interval Difference [D2]-[Baseline], Median ([1]; C2): 13.2 ms
QTc Interval Difference [4 hr]-[Baseline], Median ([1]; C3): 15.5 ms
QTc Interval Difference [D2]-[Baseline], Median ([1]; C3): 5.3 ms
QTc Interval Difference [4 hr]-[Baseline], Median ([1]; C4): 15.9 ms
QTc Interval Difference [D2]-[Baseline], Median ([1]; C4): 15.5 ms
QTc Interval Difference [4 hr]-[Baseline], Median ([1]; C5): 18.2 ms
QTc Interval Difference [D2]-[Baseline], Median ([1]; C5): 14.8 ms
QTc Interval Difference [4 hr]-[Baseline], Median ([1]; C6): 18.8 ms
QTc Interval Difference [D2]-[Baseline], Median ([1]; C6): 17.8 ms
Least Square mean QT interval ([1]; Post dose, 31 patients, p < 0.0001 vs pre-dose): 424.1*
Least Square mean QT interval ([1]; Pre-dose, 31 patients): 409.7
Maximum increase in QTc over that patient's mean baseline QTc ([1]; baseline QTc of 415.75): 19%
Least Square mean QT interval ([1]; day 1 (pre-treatment), 31 patients, repeated measures ANOVA): 410.3
Least Square mean QT interval ([1]; day 2 (day after treatment), 31 patients): 422.7
Least Square mean QT interval ([1]; day 8 (pre-treatment), 31 patients): 410.8
Least Square mean QT interval ([1]; day 9 (day after treatment), 31 patients): 426.0
Least Square mean QT interval ([1]; day 15 (pre-treatment), 31 patients): 408.0
Least Square mean QT interval ([1]; day 16 (day after treatment), 31 patients): 423.7
Doses associated with a 30 to 60 ms prolongation of QTc [1, 4]: 24%
Doses associated with a greater than 60 ms prolongation of QTc [1, 4]: 3.2%
Time after treatment by which QTc changes had reverted to baseline ([1]; first cycle): ≤ 48 h
Number of ECGs demonstrating an increased QTc from baseline ([1]; of 670 ECGs obtained immediately post-treatment or on the day following treatment, 31 patients): 514
Number of ECGs with QTc greater than 450 ms [1, 5]: 27
Number of ECGs with QTc greater than 480 ms [1, 5]: 3
Number of patients with QTc greater than 450 ms [1, 5]: 15
Number of patients with QTc greater than 480 ms [1, 5]: 3
QTc greater than 500 ms [1, 5]: no QTc was greater than 500 ms
Share of ECGs with QTc greater than 450 ms [1, 5]: 1.3%
Share of ECGs with QTc greater than 480 ms [1, 5]: 0.1%
Number of cTnI samples found to be elevated ([2]; from 8 patients, 601 pre-treatment and 590 day-after samples): 10
CPK Post-treatment [2, 6]: 20 and 28 (2×) and 18 and 16 and 85 and 157 and 144 and 162
CPK Pre-treatment [2, 6]: 29 and 43 and 27 and 47 and 70 and 200 and 179 and 28 and 39 and 160
CPK samples obtained in parallel with the 10 elevated cTnI samples ([2]; range, unchanged from pre-treatment): 16-200
Troponin Post-treatment ([2]; serum cTnI, day following treatment, individual cases): 2.1-3.3 ng/ml and ≦0.2 ng/ml and 3.3 ng/ml and 2.1 ng/ml and 2.6 ng/ml and 8.3 ng/ml and 2.3 ng/ml and 15.8 ng/ml and 3.6 ng/ml
Troponin Repeat (of elevated pre-treatment sample) ([2]; serum cTnI, individual cases): ≤ 0.2 ng/ml and ≦0.2 ng/ml
Troponin Pre-treatment ([2]; serum cTnI, individual cases with an elevated sample among 1191 samples): 3.4-11.3 ng/ml and 11.3 ng/ml and ≦0.2 ng/ml and 3.4 ng/ml and 6.4 ng/ml
Troponin Repeat (of elevated post-treatment sample) ([2]; serum cTnI, repeated the same day, individual cases): ≤ 0.2 ng/ml and ≦0.2 ng/ml
